Measured values as given in patent EP0072027A1, “Antiviral compounds” (THE WELLCOME FOUNDATION LIMITED, priority 1981, dated 1983).
Marks after values point to notes of the source that are not given here.

How the values were obtained:
Herpes simplex type 1 = assay: In vitro plaque reduction in VERO cell cultures (Example 16); type: cell-based; conditions: for IC50: Human alphaherpesvirus 1, Vero, VERO cells
Method: 60mm plastic cell culture dishes were seeded with a VERO cell suspension (6 ml of 2 x 10^5 cells/ml) in VERO cell growth medium comprising 5% foetal calf serum, 10% Eagles minimal essential medium, 0.11% sodium bicarbonate,0.25% Crystamycin.
(50,000 units/ml sodium benzyl penicillin B.P. and 50 mg/ml streptomcyin sulphate B.P.). The dishes were gently shaken to ensure the complete dispersion of the cells and then the cultures were incubated at 37°C in an atmosphere of 5% CO2/air overnight to attain confluency. The growth medium was then replaced with 2 ml of virus (Herpes simplex type 1) inoculum in phosphate buffered saline (PBS). The virus concentration was such as to induce the formation of 200-400 plaques/plate. A period of 1 hour was allowed for virus absorption at 37°C in 5% COZair, after which time the plates were drained and overlay medium (8 ml) was added at 42 °C. The overlay medium consisted of 0.6% agarose, 2% foetal calf serum, 10% Eagle's minimal essential medium, 0.11% sodium bicarbonate and 0.25% Crystamycin.
Doubling dilutions in micromolarity of active compound were prepared in the overlay and replicate cultures were fed with the maintenance medium overlay containing a range of concentrations of the compound. Untreated virus control cultures and uninfected cultures were also prepared. The overlay was allowed to solidify at room temperature before the cultures were returned to the incubator at 37°C in 5% CO2/air for 4 days. The cultures were then fixed with 10% formalin in PBS for 30 minutes to 1 hour; the overlay was removed and the cells were stained with 0.05% w/v methyl violet in 20% methanol. The resultant plaques were counted and expressed as a percentage of the plaque count of the untreated virus control cultures. These values were then plotted against the log10 of the compound concentration and the IC50 values representing the amount of the compound required to reduce the plaque count by 50% was read from the resulting dose-response line.

[1] = system: herpes simplex virus type 1; assay: Comparative in vivo activity against herpetic encephalitis in mice (Example 18); design: species or system CD.1 mice; conditions: for Mean reciprocal survival time: 100 mg/kg/dose twice daily for 4½ days, 300 LD50
Method: CD.1 mice weighing 16 - 20 gm were obtained from Charles River, Manston, Kent, U.K. The animals were housed in groups of approximately 10 and were given food and water ad lib.
The compounds namely acyclovir, 134U, 759U and 457U, were prepared as suspensions or solutions in sterile water at a concentration of 20 mg/ml prior to each experiment, and were stored at 4°C during the dosing period.
The ICI strain of herpes simplex virus type 1 was used for all experiments at a concentration of 300 LD50 (10^5 pfu)/ml). Dilutions from virus stocks ([…]) were prepared in PBS 'A'.
The test procedure is analoguous to that described in Example 13.
Three experiments were performed, in which three routes of compound administration were examined: i) subcutaneous, ii) oral and iii) intraperitoneal. […]

[2] = system: Equine rhinopneumonitis virus (EHV-1); assay: In vivo activity against equine rhinopneumonitis virus in hamsters (Example 14), intraperitoneal and oral; design: species or system Syrian weanling hamsters
Method: Male cream Syrian weanling hamsters, 40-50 g, 21-24 days old, were caged in groups of 5 and given water and food ad lib.
Equine rhinopneumonitis virus (EHV-1), hamster adapted Vaccine Strain 'Pneumabort' was used; the vaccine was diluted 10^-1 in tissue culture fluid and this stock stored in 1 ml aliquots in sealed glass vials at -70°C. On Day 0 hamsters to be infected received 0.2 ml stock vaccine virus, diluted further 2 x 10^-1 in phosphate buffered saline, subcutaneously in the left flank.
9-/(2-Hydroxy-l-hydroxymethylethoxy)methyl/guanine (hereinafter referred to as 759U) and acyclovir were made up as aqueous solutions in sterile distilled water in the concentrations specified below.
Intraperitoneal administration: from Day 0 to Day 4, inclusive, hamsters received 759U or acyclovir in divided twice daily doses in aqueous solution, the concentration of 759U varying as following, namely 5 mg/ml to give a dose rate of 100 or 50 mg/kg/day, 1.2 mg/ml for 20 mg/kg/day, […] for 4 mg/kg/day and 0.036 mg/ml for 2 mg/kg/day. Untreated control hamsters received an equivalent volume of sterile distilled water.
A stock solution of 759U was made in sterile distilled water at 0.304 mg/ml and then diluted in 3-fold steps to 0.101 and 0.034 mg/ml. Hamsters were given medicated drinking water for 5 days commencing 5 hours pre-infection. A control group was supplied with unmedicated water.
Acyclovir was dissolved in sterile distilled water at 2 mg/ml with the addition of a little sodium hydroxide and warming to 42°C to facilitate solution. Hamsters were given medicated drinking water, containing acyclovir at 2 mg/ml, for 5 days commencing 5 hours pre-infection. […] A control group supplied with unmedicated water was set up.

[3] = Experiment 1, plaque count reduced by 50%
[4] = Experiment 2, plaque count reduced by 50%
[5] = Experiment 3, plaque count reduced by 50%
[6] = 50 mg/kg/day intraperitoneal, Day 2, 10 in group
[7] = 50 mg/kg/day intraperitoneal, Day 3, 10 in group
[8] = 50 mg/kg/day intraperitoneal, Day 4, 10 in group
[9] = 50 mg/kg/day intraperitoneal, Day 5, 10 in group
[10] = 50 mg/kg/day intraperitoneal, Day 6, 10 in group
[11] = 50 mg/kg/day intraperitoneal, Day 7, 10 in group
[12] = 100 mg/kg/day intraperitoneal, Day 2, 10 in group
[13] = 100 mg/kg/day intraperitoneal, Day 3, 10 in group
[14] = 100 mg/kg/day intraperitoneal, Day 4, 10 in group
[15] = 100 mg/kg/day intraperitoneal, Day 5, 10 in group
[16] = 100 mg/kg/day intraperitoneal, Day 6, 10 in group
[17] = 100 mg/kg/day intraperitoneal, Day 7, 10 in group

## Nc1nc2c(ncn2COC(CO)CO)c(=O)[nH]1 [Example 759U, 9-[(2-hydroxy-1-hydroxymethylethoxy)methyl]guanine]
Herpes simplex type 1
  activity in vitro against Herpes simplex type I compared with acyclovir: greater activity
Herpes simplex type 1; [3]
  IC50: 90 nM
Herpes simplex type 1; [4]
  IC50: 50 nM
Herpes simplex type 1; [5]
  IC50: 36 nM
Herpes simplex type 1; Mean of Experiments 1-3
  IC50: 59 nM
[1]; Oral
  Mean reciprocal survival time: 0.146
[1]; any of the three routes, difference highly significant
  antiviral effect compared with acyclovir and 134U: greatest antiviral effect
[1]; i.p.
  Mean reciprocal survival time: 0.093
[1]; s.c.
  Mean reciprocal survival time: 0.084
[2]; 2 mg/kg/day intraperitoneal, Day 2, 10 in group
  Cumulative mortality: 0
[2]; 2 mg/kg/day intraperitoneal, Day 3, 10 in group
  Cumulative mortality: 0
[2]; 2 mg/kg/day intraperitoneal, Day 4, 10 in group
  Cumulative mortality: 0
[2]; 2 mg/kg/day intraperitoneal, Day 5, 10 in group
  Cumulative mortality: 0
[2]; 2 mg/kg/day intraperitoneal, Day 6, 10 in group
  Cumulative mortality: 0
[2]; 2 mg/kg/day intraperitoneal, Day 7, 10 in group
  Cumulative mortality: 0
[2]; 2 mg/kg/day intraperitoneally
  control of virus-induced mortality: complete control
[2]; 3 mg/kg/day oral (drinking water), Day 2, 10 in group
  Cumulative mortality: 0
[2]; 3 mg/kg/day oral (drinking water), Day 3, 10 in group
  Cumulative mortality: 1
[2]; 3 mg/kg/day oral (drinking water), Day 4, 10 in group
  Cumulative mortality: 1
[2]; 3 mg/kg/day oral (drinking water), Day 5, 10 in group
  Cumulative mortality: 1
[2]; 3 mg/kg/day oral (drinking water), Day 6, 10 in group
  Cumulative mortality: 1
[2]; 3 mg/kg/day oral (drinking water), Day 7, 10 in group
  Cumulative mortality: 1
[2]; 4 mg/kg/day intraperitoneal, Day 2, 10 in group
  Cumulative mortality: 0
[2]; 4 mg/kg/day intraperitoneal, Day 3, 10 in group
  Cumulative mortality: 0
[2]; 4 mg/kg/day intraperitoneal, Day 4, 10 in group
  Cumulative mortality: 0
[2]; 4 mg/kg/day intraperitoneal, Day 5, 10 in group
  Cumulative mortality: 0
[2]; 4 mg/kg/day intraperitoneal, Day 6, 10 in group
  Cumulative mortality: 0
[2]; 4 mg/kg/day intraperitoneal, Day 7, 10 in group
  Cumulative mortality: 0
[2]; 13 mg/kg/day oral (drinking water), Day 2, 10 in group
  Cumulative mortality: 0
[2]; 13 mg/kg/day oral (drinking water), Day 3, 10 in group
  Cumulative mortality: 0
[2]; 13 mg/kg/day oral (drinking water), Day 4, 10 in group
  Cumulative mortality: 0
[2]; 13 mg/kg/day oral (drinking water), Day 5, 10 in group
  Cumulative mortality: 0
[2]; 13 mg/kg/day oral (drinking water), Day 6, 10 in group
  Cumulative mortality: 0
[2]; 13 mg/kg/day oral (drinking water), Day 7, 10 in group
  Cumulative mortality: 0
[2]; 20 mg/kg/day intraperitoneal, Day 2, 10 in group
  Cumulative mortality: 0
[2]; 20 mg/kg/day intraperitoneal, Day 3, 10 in group
  Cumulative mortality: 0
[2]; 20 mg/kg/day intraperitoneal, Day 4, 10 in group
  Cumulative mortality: 0
[2]; 20 mg/kg/day intraperitoneal, Day 5, 10 in group
  Cumulative mortality: 0
[2]; 20 mg/kg/day intraperitoneal, Day 6, 10 in group
  Cumulative mortality: 0
[2]; 20 mg/kg/day intraperitoneal, Day 7, 10 in group
  Cumulative mortality: 0
[2]; 39 mg/kg/day oral (drinking water), Day 2, 10 in group
  Cumulative mortality: 0
[2]; 39 mg/kg/day oral (drinking water), Day 3, 10 in group
  Cumulative mortality: 0
[2]; 39 mg/kg/day oral (drinking water), Day 4, 10 in group
  Cumulative mortality: 0
[2]; 39 mg/kg/day oral (drinking water), Day 5, 10 in group
  Cumulative mortality: 0
[2]; 39 mg/kg/day oral (drinking water), Day 6, 10 in group
  Cumulative mortality: 0
[2]; 39 mg/kg/day oral (drinking water), Day 7, 10 in group
  Cumulative mortality: 0
[2]; [6]
  Cumulative mortality: 0
[2]; [7]
  Cumulative mortality: 0
[2]; [8]
  Cumulative mortality: 0
[2]; [9]
  Cumulative mortality: 0
[2]; [10]
  Cumulative mortality: 0
[2]; [11]
  Cumulative mortality: 0
[2]; [12]
  Cumulative mortality: 0
[2]; [13]
  Cumulative mortality: 0
[2]; [14]
  Cumulative mortality: 0
[2]; [15]
  Cumulative mortality: 0
[2]; [16]
  Cumulative mortality: 0
[2]; [17]
  Cumulative mortality: 1*
[2]; orally at 3 mg/kg/day
  efficacy against EHV-1: only limited mortality
[2]; orally at 13 mg/kg/day
  efficacy against EHV-1: completely effective

## Nc1nc2c(ncn2COCCO)c(=O)[nH]1 [acyclovir, 9-(2-hydroxyethoxymethyl) guanine, reference compound]
Herpes simplex type 1; [3]
  IC50: 170 nM
Herpes simplex type 1; [4]
  IC50: 75 nM
Herpes simplex type 1; [5]
  IC50: 110 nM
Herpes simplex type 1; Mean of Experiments 1-3
  IC50: 118 nM
[1]; Oral
  Mean reciprocal survival time: 0.237
[1]; i.p.
  Mean reciprocal survival time: 0.236
[1]; s.c.
  Mean reciprocal survival time: 0.174
[2]; [6]
  Cumulative mortality: 0
[2]; [7]
  Cumulative mortality: 1
[2]; [8]
  Cumulative mortality: 2
[2]; [9]
  Cumulative mortality: 5
[2]; [10]
  Cumulative mortality: 6
[2]; [11]
  Cumulative mortality: 6
[2]; [12]
  Cumulative mortality: 0
[2]; [13]
  Cumulative mortality: 0
[2]; [14]
  Cumulative mortality: 1*
[2]; [15]
  Cumulative mortality: 2*
[2]; [16]
  Cumulative mortality: 2*
[2]; [17]
  Cumulative mortality: 3*
[2]; 100 mg/kg/day oral (drinking water 2 mg/ml), Day 2, 12 in group
  Cumulative mortality: 0
[2]; 100 mg/kg/day oral (drinking water 2 mg/ml), Day 3, 12 in group
  Cumulative mortality: 2
[2]; 100 mg/kg/day oral (drinking water 2 mg/ml), Day 4, 12 in group
  Cumulative mortality: 5
[2]; 100 mg/kg/day oral (drinking water 2 mg/ml), Day 5, 12 in group
  Cumulative mortality: 7
[2]; 100 mg/kg/day oral (drinking water 2 mg/ml), Day 6, 12 in group
  Cumulative mortality: 8
[2]; orally at 100 mg/kg/day for 5 days
  efficacy against EHV-1: poor efficacy
